The assay has as its system P. aeruginosa 2. Kind of assay: in vitro Antimicrobial Activity (two-fold agar-plate dilution method). The assay is classed as cell-based. Particulars: Pseudomonas aeruginosa, 10^6 viable cells per ml, heart infusion agar, 37° C. for 20 hours, read-out: MIC (minimal inhibitory concentration). As for the experimental part:
in vitro Antimicrobial Activity was determined by the two-fold agar-plate dilution method as described blow.
One loopful of an overnight culture of a test strain in Trypticase-soy broth (10^6 viable cells per ml) was streaked on heart infusion agar (HI-agar) containing graded concentrations of the test compound, and the minimal inhibitory concentration (MIC) was expressed in terms of μg/ml after incubation at 37° C. for 20 hours.

With `C[C@@H](O)[C@H]1C(=O)N2C(C(=O)O)=C(S[C@@H]3CN[C@H](CN4CCCn5c4cc[n+]5C)C3)[C@H](C)[C@H]12` [Example 1-3, (4R,5S,6S)-6-[(1R)-1-hydroxyethyl]-4-methyl-3-[(2S,4S)-2-{1-methyl-4,5,6,7-tetrahydro-4-pyrazolo[1,5-a]pyrimidinio}methylpyrrolidin-4-yl]thio-7-oxo-1-azabicyclo[3.2.0]-hept-2-ene-2-carboxylic acid chloride], the MIC worked out at 0.39 µg/mL.

These data come from patent US5215983A, “Carbapenem compounds” (Fujisawa Pharmaceutical Co., Ltd., priority 1989, dated 1993).
